Measured values published in PubChem BioAssay AID248 (DTP/NCI, 2004).
Where “and” joins values, the source holds several entries; their conditions need not be identical. Equal values may be shown once. Inconclusive results and toxic doses are left out. No stated cut-off is given here; in the data, active means T/C of 150% or more; inactive means T/C below 125%.

Tested on: L1210 leukemia ip in BDF1 mice, survival T/C
Test: NCI In Vivo Anticancer Drug Screen. Data for tumor model L1210 Leukemia (intraperitoneal) in B6D2F1 (BDF1) mice
Settings: endpoint: mean survival time, higher = longer survival
In short: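 Read-out is survival time, reported as the treated-group measurement over the vehicle-control measurement.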

[1] = dose: 50.0 mg/kg/injection, schedule: Q01DX001 (ip), vehicle: Klucel (hydroxypropylcellulose) (HPC)
[2] = dose: 100.0 mg/kg/injection, schedule: Q01DX001 (ip), vehicle: Klucel (hydroxypropylcellulose) (HPC)
[3] = dose: 200.0 mg/kg/injection, schedule: Q01DX001 (ip), vehicle: Klucel (hydroxypropylcellulose) (HPC)
[4] = dose: 100.0 mg/kg/injection, schedule: Q04DX003 (ip), vehicle: Klucel (hydroxypropylcellulose) (HPC)

Measured: T/C

O=C(Nc1ccccc1[N+](=O)[O-])C(=O)Nc1ccccc1[N+](=O)[O-]
inactive: dose: 50.0 mg/kg/injection, schedule: Q01DX009 (ip), vehicle: saline with Tween-80 91 % of control | dose: 100.0 mg/kg/injection, schedule: Q01DX009 (ip), vehicle: saline with Tween-80 86 % of control | dose: 100.0 mg/kg/injection, schedule: Q04DX003 (ip), vehicle: saline with Tween-80 95 % of control | dose: 200.0 mg/kg/injection, schedule: Q01DX009 (ip), vehicle: saline with Tween-80 94 % of control | dose: 200.0 mg/kg/injection, schedule: Q04DX003 (ip), vehicle: saline with Tween-80 93 % of control

O=[N+]([O-])c1cccc(OCCCCOc2ccc(S(=O)(=O)F)cc2)c1
inactive: [1] 92 % of control | [2] 94 % of control | [3] 90 % of control

O=C1C[C@H]2CCCC[C@@H]2O1
inactive: dose: 75.0 mg/kg/injection, schedule: Q01DX001 (ip), vehicle: other 107 % of control | dose: 150.0 mg/kg/injection, schedule: Q01DX001 (ip), vehicle: other 105 % of control | dose: 300.0 mg/kg/injection, schedule: Q01DX001 (ip), vehicle: other 102 % of control

CC(C)(C)C(=O)Nc1ccc(NS(=O)(=O)c2ccccc2)c(Cl)c1
inactive: [1] 108 % of control | [2] 97 % of control | [3] 109 % of control

NN=C(c1ccccc1)c1ccccc1
inactive: dose: 1.3 mg/kg/injection, schedule: Q01DX009 (ip), vehicle: Klucel (hydroxypropylcellulose) (HPC) 103 % of control | dose: 2.61 mg/kg/injection, schedule: Q01DX009 (ip), vehicle: Klucel (hydroxypropylcellulose) (HPC) 94 % of control | dose: 5.23 mg/kg/injection, schedule: Q01DX009 (ip), vehicle: Klucel (hydroxypropylcellulose) (HPC) 94 % of control | dose: 10.46 mg/kg/injection, schedule: Q01DX009 (ip), vehicle: Klucel (hydroxypropylcellulose) (HPC) 86 % of control | dose: 25.0 mg/kg/injection, schedule: Q04DX003 (ip), vehicle: Klucel (hydroxypropylcellulose) (HPC) 97 % of control | dose: 41.87 mg/kg/injection, schedule: Q01DX009 (ip), vehicle: Klucel (hydroxypropylcellulose) (HPC) 91 % of control | dose: 50.0 mg/kg/injection, schedule: Q01DX001 (ip), vehicle: saline 96 % of control | dose: 50.0 mg/kg/injection, schedule: Q04DX003 (ip), vehicle: Klucel (hydroxypropylcellulose) (HPC) 92 % of control | dose: 83.7 mg/kg/injection, schedule: Q01DX009 (ip), vehicle: Klucel (hydroxypropylcellulose) (HPC) 98 % of control | dose: 100.0 mg/kg/injection, schedule: Q01DX001 (ip), vehicle: saline 96 % of control | [4] 111 % of control | dose: 200.0 mg/kg/injection, schedule: Q01DX001 (ip), vehicle: saline 100 % of control | dose: 400.0 mg/kg/injection, schedule: Q01DX001 (ip), vehicle: saline 96 % of control

C#CCSC(C)C
inactive: dose: 25.0 mg/kg/injection, schedule: Q04DX002 (ip), vehicle: saline 104 % of control | dose: 50.0 mg/kg/injection, schedule: Q04DX002 (ip), vehicle: saline 104 % of control | dose: 100.0 mg/kg/injection, schedule: Q04DX002 (ip), vehicle: saline 96 % of control | dose: 200.0 mg/kg/injection, schedule: Q04DX002 (ip), vehicle: saline 104 % of control and 107 % of control | dose: 400.0 mg/kg/injection, schedule: Q04DX002 (ip), vehicle: saline 93 % of control

Cc1ccc(N=Nc2ccc(C)cc2NC(=O)Nc2cc(Cl)ccc2C)cc1
inactive: dose: 100.0 mg/kg/injection, schedule: Q01DX009 (ip), vehicle: Klucel (hydroxypropylcellulose) (HPC) 93 % of control | dose: 200.0 mg/kg/injection, schedule: Q01DX009 (ip), vehicle: Klucel (hydroxypropylcellulose) (HPC) 94 % of control

NC(=O)N1CCN(c2ccccc2)CC1
inactive: [4] 95 % of control | dose: 200.0 mg/kg/injection, schedule: Q04DX003 (ip), vehicle: Klucel (hydroxypropylcellulose) (HPC) 97 % of control | dose: 400.0 mg/kg/injection, schedule: Q04DX003 (ip), vehicle: Klucel (hydroxypropylcellulose) (HPC) 101 % of control

C=CCN(CCN(CC)CC)C(=O)C(O)(c1ccccc1)c1ccccc1
inactive: dose: 100.0 mg/kg/injection, schedule: Q04DX002 (ip), vehicle: saline with Tween-80 93 % of control | dose: 200.0 mg/kg/injection, schedule: Q04DX002 (ip), vehicle: saline with Tween-80 93 % of control | dose: 400.0 mg/kg/injection, schedule: Q04DX002 (ip), vehicle: saline with Tween-80 95 % of control
